Laboratory results taken from patent US20260262643A1, “HERBICIDAL BENZOXAZINES” (FMC CORPORATION, priority 2022, published 2026).

Assays:
barnyardgrass [1] = test: Test C preemergence; assay type: in vivo, Echinochloa crusgalli; details: 0 to 100 scale (0 no effect, 100 complete control)
How it was run: (§1)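 Greenhouse herbicide screen, 10-day duration. Test chemicals in solvent/surfactant blend were sprayed onto soil at sowing (pre) or onto 2–10 cm seedlings at one to two leaves (post); injury scored visually against controls, 0 no effect to 100 complete control.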

blackgrass [2] = test: Test C preemergence; assay type: in vivo, Alopecurus myosuroides; details: 0 to 100 scale (0 no effect, 100 complete control)
How it was run: as §1

corn [3] = test: Test C preemergence; assay type: in vivo, Zea mays; details: 0 to 100 scale (0 no effect, 100 complete control)
How it was run: as §1

green foxtail [4] = test: Test C preemergence; assay type: in vivo, Setaria viridis; details: 0 to 100 scale (0 no effect, 100 complete control)
How it was run: as §1

kochia [5] = test: Test C preemergence; assay type: in vivo, Bassia scoparia; details: 0 to 100 scale (0 no effect, 100 complete control)
How it was run: as §1

oat, wild [6] = test: Test C preemergence; assay type: in vivo, Avena fatua; details: 0 to 100 scale (0 no effect, 100 complete control)
How it was run: as §1

pigweed, palmer [7] = test: Test C preemergence; assay type: in vivo, Amaranthus palmeri; details: 0 to 100 scale (0 no effect, 100 complete control)
How it was run: as §1

ragweed [8] = test: Test C preemergence; assay type: in vivo, Ambrosia artemisiifolia; details: 0 to 100 scale (0 no effect, 100 complete control)
How it was run: as §1

ryegrass, Italian [9] = test: Test C preemergence; assay type: in vivo, Lolium multiflorum; details: 0 to 100 scale (0 no effect, 100 complete control)
How it was run: as §1

soybean [10] = test: Test C preemergence; assay type: in vivo, Glycine max; details: 0 to 100 scale (0 no effect, 100 complete control)
How it was run: as §1

wheat [11] = test: Test C preemergence; assay type: in vivo, Triticum aestivum; details: 0 to 100 scale (0 no effect, 100 complete control)
How it was run: as §1

barnyardgrass [12] = test: Test C postemergence; assay type: in vivo, Echinochloa crusgalli; details: 10 days
How it was run: as §1

blackgrass [13] = test: Test C postemergence; assay type: in vivo, Alopecurus myosuroides; details: 10 days
How it was run: as §1

corn [14] = test: Test C postemergence; assay type: in vivo, Zea mays; details: 10 days
How it was run: as §1

green foxtail [15] = test: Test C postemergence; assay type: in vivo, Setaria viridis; details: 10 days
How it was run: as §1

kochia [16] = test: Test C postemergence; assay type: in vivo, Bassia scoparia; details: 10 days
How it was run: as §1

oat, wild [17] = test: Test C postemergence; assay type: in vivo, Avena fatua; details: 10 days
How it was run: as §1

pigweed, palmer [18] = test: Test C postemergence; assay type: in vivo, Amaranthus palmeri; details: 10 days
How it was run: as §1

ragweed [19] = test: Test C postemergence; assay type: in vivo, Ambrosia artemisiifolia; details: 10 days
How it was run: as §1

ryegrass, Italian [20] = test: Test C postemergence; assay type: in vivo, Lolium multiflorum; details: 10 days
How it was run: as §1

soybean [21] = test: Test C postemergence; assay type: in vivo, Glycine max; details: 10 days
How it was run: as §1

wheat [22] = test: Test C postemergence; assay type: in vivo, Triticum aestivum; details: 10 days
How it was run: as §1

galium = test: Test C postemergence; assay type: in vivo, Galium aparine; details: 10 days
How it was run: as §1

horseweed = test: Test C postemergence; assay type: in vivo, Erigeron canadensis; details: 10 days
How it was run: as §1

barnyardgrass [23] = test: Test D flooded paddy test; assay type: in vivo, Echinochloa crus-galli; details: 250 g ai/ha, applied to paddy water, visual rating after 13 to 14 days, scale 0 to 100 (0 no effect, 100 complete control)
How it was run: (§2)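 Visual ratings from 0, meaning no effect, to 100, meaning complete control, were assigned against untreated controls 13 to 14 days after compounds were added to the floodwater of pots kept 3 cm deep, with plants at the 2-leaf stage.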

ducksalad = test: Test D flooded paddy test; assay type: in vivo, Heteranthera limosa; details: 250 g ai/ha, applied to paddy water, visual rating after 13 to 14 days, scale 0 to 100 (0 no effect, 100 complete control)
How it was run: as §2

rice = test: Test D flooded paddy test; assay type: in vivo, Oryza sativa; details: 250 g ai/ha, applied to paddy water, visual rating after 13 to 14 days, scale 0 to 100 (0 no effect, 100 complete control)
How it was run: as §2

sedge, umbrella = test: Test D flooded paddy test; assay type: in vivo, Cyperus difformis; details: 250 g ai/ha, applied to paddy water, visual rating after 13 to 14 days, scale 0 to 100 (0 no effect, 100 complete control)
How it was run: as §2

[24] = Preemergence, 500 g ai/ha, visual rating after 10 days
[25] = Test C, preemergence, 125 g ai/ha
[26] = 125 g ai/ha, postemergence, 0 to 100 scale, 0 no effect, 100 complete control
[27] = Postemergence, 500 g ai/ha, visual 0 to 100 scale (0 no effect, 100 complete control)

SMILES: Cc1ccc(-n2cnc(C(C)C)n2)cc1C(=O)N1C[C@H](C)Oc2c(F)cccc21 [Compound 242]
- Plant response rating, Barnyardgrass (barnyardgrass [1]; [24]): 100
- Barnyardgrass plant response rating (barnyardgrass [1]; [25]): 100
- Plant response rating, Blackgrass (blackgrass [2]; [24]): 90
- Blackgrass plant response rating (blackgrass [2]; [25]): 90
- Plant response rating, Corn (corn [3]; [24]): 70
- Corn plant response rating (corn [3]; [25]): 30
- Plant response rating, Foxtail, Green (green foxtail [4]; [24]): 100
- Foxtail, Green plant response rating (green foxtail [4]; [25]): 100
- Plant response rating, Kochia (kochia [5]; [24]): 100
- Kochia plant response rating (kochia [5]; [25]): 90
- Plant response rating, Oat, Wild (oat, wild [6]; [24]): 90
- Oat, Wild plant response rating (oat, wild [6]; [25]): 90
- Plant response rating, Pigweed, Palmer (pigweed, palmer [7]; [24]): 100
- Pigweed, Palmer plant response rating (pigweed, palmer [7]; [25]): 100
- Plant response rating, Ragweed (ragweed [8]; [24]): 100
- Ragweed plant response rating (ragweed [8]; [25]): 0
- Plant response rating, Ryegrass, Italian (ryegrass, Italian [9]; [24]): 100
- Ryegrass, Italian plant response rating (ryegrass, Italian [9]; [25]): 100
- Plant response rating, Soybean (soybean [10]; [24]): 100
- Soybean plant response rating (soybean [10]; [25]): 90
- Plant response rating, Wheat (wheat [11]; [24]): 90
- Wheat plant response rating (wheat [11]; [25]): 60
- Plant response rating, Barnyardgrass (barnyardgrass [12]; [26]): 90
- Plant response rating, Barnyardgrass (barnyardgrass [12]; [27]): 100
- Plant response rating, Blackgrass (blackgrass [13]; [26]): 80
- Plant response rating, Blackgrass (blackgrass [13]; [27]): 100
- Plant response rating, Corn (corn [14]; [26]): 60
- Plant response rating, Corn (corn [14]; [27]): 90
- Plant response rating, Foxtail, Green (green foxtail [15]; [26]): 80
- Plant response rating, Foxtail, Green (green foxtail [15]; [27]): 90
- Plant response rating, Kochia (kochia [16]; [26]): 30
- Plant response rating, Kochia (kochia [16]; [27]): 80
- Plant response rating, Oat, Wild (oat, wild [17]; [26]): 80
- Plant response rating, Oat, Wild (oat, wild [17]; [27]): 90
- Plant response rating, Pigweed, Palmer (pigweed, palmer [18]; [26]): 80
- Plant response rating, Pigweed, Palmer (pigweed, palmer [18]; [27]): 90
- Plant response rating, Ragweed (ragweed [19]; [26]): 60
- Plant response rating, Ragweed (ragweed [19]; [27]): 90
- Plant response rating, Ryegrass, Italian (ryegrass, Italian [20]; [26]): 90
- Plant response rating, Ryegrass, Italian (ryegrass, Italian [20]; [27]): 100
- Plant response rating, Soybean (soybean [21]; [26]): 100
- Plant response rating, Soybean (soybean [21]; [27]): 100
- Plant response rating, Wheat (wheat [22]; [26]): 80
- Plant response rating, Wheat (wheat [22]; [27]): 90
- Plant response rating, Galium (galium; [26]): 100
- Plant response rating, Galium (galium; [27]): 100
- Plant response rating, Horseweed (horseweed; [26]): 50
- Plant response rating, Horseweed (horseweed; [27]): 80
- Plant response rating, Barnyardgrass (Flood) (barnyardgrass [23]): 55
- Plant response rating, Ducksalad (Flood) (ducksalad): 95
- Plant response rating, Rice (Flood) (rice): 15
- Plant response rating, Sedge, Umbrella (Flood) (sedge, umbrella): 98
